Read-outs that look alike come from different tables or passages of the source.
Assays:
[1] = system: MIAPACA-2 cells; test: MIAPACA-2 cell proliferation inhibition experiment; assay type: cell-based
Source text: (§1) The chemiluminescence readings were detected by a microplate reader.

[2] = parameters: species or system beagle dogs; settings: dog, in vivo
Procedure: 10.1 Experimental animals: male beagle dogs, about 8-11 kg, 6 beagle dogs/compound, purchased from Beijing Marshall Biotechnology Co., Ltd.
10.2 Experimental method: On the day of the experiment, (6× number of test compounds (n)) beagle dogs were randomly divided into groups according to their body weights. The animals were fasted but with water available for 12 to 14 h one day before the administration and were fed 4 h after the administration. Administration was carried out according to Table 8.
Before and after the administration, 1 mL of blood was taken from the jugular veins or limb veins, and placed in an EDTAK2 centrifuge tube. Centrifugation was performed at 5000 rpm at 4° C. for 10 min, and the plasma was collected. The blood collection time points for the intravenous administration group and intragastric administration group were 0 min, 5 min, 15 min, 30 min, 1 h, 2 h, 4 h, 6 h, 8 h, 10 h, 12 h and 24 h. Before analysis and detection, all samples were stored at −80° C., and a quantitative analysis of samples was performed using LC-MS/MS.

[3] = molecular target: PRMT5/MEP50 (Homo sapiens (Human), UniProt O14744); test: PRMT5 enzyme activity test (Alpha detection); assay type: biochemical; settings: PRMT5/MEP50 1 nM, absence of MTA
PRMT5/MEP50, sequence (O14744 whole entry): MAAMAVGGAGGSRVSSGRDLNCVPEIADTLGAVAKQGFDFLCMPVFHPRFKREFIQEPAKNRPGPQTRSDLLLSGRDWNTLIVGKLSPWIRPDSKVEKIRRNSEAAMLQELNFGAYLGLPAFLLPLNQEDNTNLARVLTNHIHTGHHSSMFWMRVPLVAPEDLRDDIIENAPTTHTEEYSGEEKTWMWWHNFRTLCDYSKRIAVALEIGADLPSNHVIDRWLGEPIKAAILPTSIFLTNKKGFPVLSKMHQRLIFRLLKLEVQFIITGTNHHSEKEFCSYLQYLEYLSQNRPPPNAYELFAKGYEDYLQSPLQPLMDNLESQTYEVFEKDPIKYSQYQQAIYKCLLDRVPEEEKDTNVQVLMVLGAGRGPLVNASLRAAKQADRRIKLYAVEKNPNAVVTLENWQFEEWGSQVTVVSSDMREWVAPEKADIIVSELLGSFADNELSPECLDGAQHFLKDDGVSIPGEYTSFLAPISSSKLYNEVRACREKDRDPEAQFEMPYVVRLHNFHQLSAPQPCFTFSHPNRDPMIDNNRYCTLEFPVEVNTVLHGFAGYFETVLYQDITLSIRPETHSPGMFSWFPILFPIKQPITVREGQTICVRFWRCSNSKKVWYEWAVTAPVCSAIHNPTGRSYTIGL
PRMT5/MEP50, sequence (Q9BQA1 whole entry partner): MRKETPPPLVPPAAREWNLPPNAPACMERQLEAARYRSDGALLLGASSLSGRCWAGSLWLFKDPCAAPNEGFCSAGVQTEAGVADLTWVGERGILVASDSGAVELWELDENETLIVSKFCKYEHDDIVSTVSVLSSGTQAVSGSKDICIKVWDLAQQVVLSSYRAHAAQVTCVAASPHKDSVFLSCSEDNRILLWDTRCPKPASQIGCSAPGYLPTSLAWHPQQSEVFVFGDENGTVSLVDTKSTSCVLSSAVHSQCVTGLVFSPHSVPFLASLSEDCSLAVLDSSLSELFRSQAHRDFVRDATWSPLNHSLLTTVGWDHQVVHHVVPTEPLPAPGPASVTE
Procedure: (§2) 1× test buffer (10 mM Tris, 1 mM DTT, 0.01% BSA, 0.01% Tween-20, adjusted to pH 8.0) was prepared. The test compound was dissolved in DMSO to prepare a 10 mM mother liquor, and the mother liquor was diluted to a 100-fold final concentration. 100 nL of the compound was added to each well of the administration group, and 100 nL of DMSO solution was added to blank wells and negative control wells. Then, 5 μL of a PRMT5/MEP50 (BPS, Cat #31921) enzyme solution (final concentration: 1 nM) was added to the wells of the administration group and negative control wells, and 5 μL of 1× test buffer was added to the blank wells. Incubation was performed at room temperature for 15 minutes. […] 1× Epigenetics buffer (PerkinElmer, Cat #AL008F) was prepared and used for diluting acceptor microbeads and donor microbeads. 15 μL of acceptor microbeads (final concentration: 10 μg/mL; PerkinElmer, Cat #AL150C) and donor microbeads (final concentration: 10 μg/mL; PerkinElmer, Cat #AS106M) were added and incubated at room temperature for 1 hour in the dark. Then, detection was performed using the Alpha module of the reader Enspire microplate. Based on the obtained data, the inhibition rate was calculated in Excel according to: inhibition rate (%)=(maximum value negative control−detection signal value)/(maximum value negative control−minimum value blank control)×100, and IC50 values were fitted by using XL-Fit.

[4] = system: SDMA production in HCT-116 MTAP−/− cells; settings: read-out: HCT-116 MTAP−/− SDMA (IC50); 3 days incubation
Procedure: HCT-116 MTAP−/− cells were cultured in an RPMI 1640 culture medium (ATCC, #30-2001; supplemented with 10% FBS and 1% double antibody) until the confluence reached about 85%, and then the cells were plated. The culture medium was discarded, and the cells were rinse with 1×PBS and digested by trypsin (Gibco, Cat #15400-054). When the cells became round and began to fall off, the digestion was terminated by adding the culture medium. The cells were pipetted, transferred to a sterile centrifuge tube and centrifuged at 1000 rpm for 3 minutes, and after the centrifugation, the supernatant was discarded. The cells were resuspended by adding the culture medium to the centrifuge tube and then counted. According to the counting results, the cell suspension was adjusted to an appropriate concentration and poured into a loading slot. 100 μL of the cell suspension was added to each well of the 96-well plate. The compound was dissolved in DMSO to 10 mM and stored for later use. […] 100 μL of the Immobilon Forte Western HRP substrate (Millipore, Cat #WBLUF0500) was added to each well and incubated with shaking for 15 minutes, followed by chemiluminescence detection using the BMG microplate reader. After data normalization (SDMA reading/SMD3 reading), Graphpad Prism 8.3.0 software was used to plot the data, and the IC50 value was calculated.

[5] = system: HCT-116 MTAP−/− cells
Procedure: HCT-116 MTAP^−/− cells were cultured in an RPMI 1640 culture medium (ATCC, Cat #30-2001; supplemented with 10% FBS and 1% double antibody) until the confluence reached about 85%, and then the cells were plated. The culture medium was discarded, and the cells were washed with 1×PBS and digested by trypsin (Gibco, Cat #15400-054). When the cells became round and began to fall off, the digestion was terminated by adding the culture medium. The cells were pipetted, transferred to a sterile centrifuge tube and centrifuged at 1000 rpm for 3 minutes, and after the centrifugation, the supernatant was discarded. The cells were resuspended by adding the culture medium to the centrifuge tube and then counted. According to the counting results, the cell suspension was adjusted to an appropriate concentration and poured into a loading slot. The cell suspension was added to a first 96-well plate (Corning, Cat #3903), and added to 10 wells (as Day 0 wells) in a second 96-well plate. The compound was dissolved in DMSO to 10 mM and stored for later use. […] The chemiluminescence readings were detected by a microplate reader. The cell proliferation inhibition rate was calculated according to the following formula: [1−(25×T test−T0/25×T control−T0)]×100, and then the GI50 value of the compound for inhibiting cell proliferation was calculated using the DoseResp function and the Origin 9.2 software.

[6] = system: SDMA production in HCT-116 cells; test: SDMA detection in HCT-116 cells; assay type: cell-based; settings: 3 days incubation
Procedure: HCT-116 cells were cultured in an RPMI 1640 culture medium (ATCC, Cat #30-2001; supplemented with 10% FBS and 1% double antibody) until the confluence reached about 85%, and then the cells were plated. The culture medium was discarded, and the cells were rinse with 1×PBS and digested by trypsin (Gibco, Cat #15400-054). When the cells became round and began to fall off, the digestion was terminated by adding the culture medium. The cells were pipetted, transferred to a sterile centrifuge tube and centrifuged at 1000 rpm for 3 minutes, and after the centrifugation, the supernatant was discarded. The cells were resuspended by adding the culture medium to the centrifuge tube and then counted. According to the counting results, the cell suspension was adjusted to an appropriate concentration and poured into a loading slot. 100 μL of the cell suspension was added to each well of the 96-well plate. The compound was dissolved in DMSO to 10 mM and stored for later use. […] 100 μL of the Immobilon Forte Western HRP substrate (Millipore, Cat #WBLUF0500) was added to each well and incubated with shaking for 15 minutes, followed by chemiluminescence detection using the BMG microplate reader. After data normalization (SDMA reading/SMD3 reading), Graphpad Prism 8.3.0 software was used to plot the data, and the IC50 value was calculated.

[7] = molecular target: PRMT5⋅MTA (Homo sapiens (Human), UniProt O14744); test: PRMT5 MTA enzyme activity test (Alpha detection); assay type: biochemical; settings: PRMT5/MEP50 1 nM with MTA 1 μM
PRMT5⋅MTA, sequence (O14744 whole entry): as the sequence (O14744 whole entry) above
PRMT5⋅MTA, sequence (Q9BQA1 whole entry partner): as the sequence (Q9BQA1 whole entry partner) above
Procedure: as §2, with “of a solution of PRMT5/MEP50 (BPS,” for “of a PRMT5/MEP50 (BPS,”, “Cat #31921) (final concentration:” for “Cat #31921) enzyme solution (final concentration:”, “1 nM) and MTA (final concentration: 1 μM) was added” for “1 nM) was added”, “Enspire microplate.” for “Enspire microplate. Based on the obtained data, the inhibition rate was calculated in Excel according to: inhibition rate (%)=(maximum value negative control−detection signal value)/(maximum value negative control−minimum value blank control)×100, and IC50 values were fitted by using XL-Fit.”
Based on the obtained data, the inhibition rate was calculated in Excel according to: inhibition rate (%)=(maximum value negative control−detection signal value)/(maximum value negative control−minimum value blank control)×100, and IC50 values were fitted by using XL-Fit.

[8] = system: HCT-116 cells; test: HCT-116 cell proliferation inhibition experiment; assay type: cell-based
Source text: as §1

[9] = Homo sapiens, MIA PaCa-2, 120 h, read-out: MIAPACA-2 (day 5 GI50)
[10] = day 5, read-out: MIAPACA-2 (day 5 GI50)
[11] = day 10, read-out: MIAPACA-2 (day 10 GI50)

GI50 [1, 9]	GI50 [1, 10]	SMILES	IC50 [3]	IC50 ([7]; read-out: PRMT5•MTA)	GI50 [1, 11]	also measured
< 50 nM	–	Cn1ncc(-c2ccc3c(=O)[nH]c(CN)nc3c2)c1-c1c(F)c(Cl)cc(OC2CC2)c1C#N [Compound 5, 2-(4-(2-(aminomethyl)-4-oxo-3,4-dihydroquinazolin-7-yl)-1-methyl-1H-pyrazol-5-yl)-4-chloro-6-cyclopropoxy-3-fluorobenzonitrile]	–	–	–	GI50 ([1]; Homo sapiens, MIA PaCa-2, 240 h, read-out: MIAPACA-2 (day 10 GI50)): < 50 nM
–	< 50 nM	Cn1ncc(-c2ccc3c(=O)[nH]c(CN)nc3c2)c1-c1c(F)c(Cl)cc(OC2CC2)c1C#N [Compound 11, (2S)-2-(4-(2-(aminomethyl)-4-oxo-3,4-dihydroquinazolin-7-yl)-1-methyl-1H-pyrazol-5-yl)-4-chloro-6-cyclopropoxy-3-fluorobenzonitrile]	–	–	< 50 nM	–

Further lines, the molecule ahead of its results:

SMILES	GI50 [1, 9]	GI50 [1, 10]	IC50 [3]	IC50 ([7]; read-out: PRMT5•MTA)	GI50 [1, 11]	also measured
C=Cc1cc(-c2cnn(C)c2-c2c(F)c(Cl)cc(OC3(C)CC3)c2C#N)cc2c(CN)n[nH]c(=O)c12 [Compound 30, (2R)-2-(4-(4-(aminomethyl)-1-oxo-8-vinyl-1,2-dihydrophthalazin-6-yl)-1-methyl-1H-pyrazol-5-yl)-4-chloro-3-fluoro-6-(1-methylcyclopropoxy)benzonitrile]	–	< 50 nM	1 to 10 nM	< 1 nM	< 50 nM	CL ([2]; iv, 5 mg/kg): 0.313 mL/min/kg; AUC0-t ([2]; po, 10 mg/kg): 178.458 µg·h/mL; T1/2 ([2]; po, 10 mg/kg): 16.1 h; IC50 [4]: 3.39 nM; GI50 ([5]; read-out: HCT-116 MTAP−/− (day 5 GI50), day 5): 38.2 nM; GI50 ([5]; read-out: HCT-116 MTAP−/− (day 10 GI50), day 10): 19.9 nM; IC50 [6]: 499 nM; IC50 ([7]; read-out: IC50 value for PRMT5⋅MTA): 0.8 nM; GI50 ([8]; day 5, read-out: HCT-116 (day 5 GI50)): > 500 nM; GI50 ([8]; day 10, read-out: HCT-116 (day 10 GI50)): > 500 nM
Cn1ncc(-c2ccc3c(=O)[nH]cc(CN)c3c2)c1-c1c(F)c(Cl)cc(OC2CC2)c1C#N [Compound 1, 2-(4-(4-(aminomethyl)-1-oxo-1,2-dihydroisoquinolin-6-yl)-1-methyl-1H-pyrazol-5-yl)-4-chloro-6-cyclopropoxy-3-fluorobenzonitrile]	–	–	10 to 50 nM	1 to 10 nM	–	–
Cn1ncc(-c2cc(N3CCC3)c3c(=O)[nH]nc(CN)c3c2)c1-c1c(F)c(Cl)cc(OC2CC2)c1C#N [Compound 22, 2-(4-(4-(aminomethyl)-8-(azetidin-1-yl)-1-oxo-1,2-dihydrophthalazin-6-yl)-1-methyl-1H-pyrazol-5-yl)-4-chloro-6-cyclopropoxy-3-fluorobenzonitrile]	< 50 nM	–	–	–	–	–
Cn1ncc(-c2ccc3c(=O)[nH]c(CN)nc3c2)c1-c1c(F)c(Cl)cc(OC2(C)CC2)c1C#N [Compound 14, (2S)-2-(4-(2-(aminomethyl)-4-oxo-3,4-dihydroquinazolin-7-yl)-1-methyl-1H-pyrazol-5-yl)-4-chloro-3-fluoro-6-(1-methylcyclopropoxy)benzonitrile]	–	< 50 nM	–	–	–	–

Reference: US20260001868A1, “HETEROCYCLIC COMPOUND CAPABLE OF INHIBITING PRMT5-MTA AND USE THEREOF” (Xizang Haisco Pharmaceutical Co., Ltd., priority 2022, published 2026)
